# Assay results: patent publication US20240254119A1 (THIRD HARMONIC BIO, INC., priority 2022, published 2024)
# Legend:
# Kinetic solubility assay = format: physicochemical; settings: for Solubility (μM): kinetic solubility, 50 mM PB (pH 7.4), shaken 24 hours at RT
# Summary of the method: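 Test compounds from 10 mM DMSO stock were diluted in 50 mM phosphate buffer, pH 7.4, and shaken for 24 h at RT. After PTFE filtration and centrifugation, filtrate concentration was quantified by UPLC-UV/HPLC-UV against a standard curve.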
# [1] = molecular target: T1, BCRP (BCRP-MDCKII monolayer) (Homo sapiens, UniProt Q9UNQ0); test: MDCKII-BCRP bidirectional transport assay; format: in vitro ADME; settings: for MDCK-BCRP: Papp A-B: apical to basolateral
# T1 construct: host or cells: MDCKII (canine kidney) cells
# T1 sequence (Q9UNQ0 1-655): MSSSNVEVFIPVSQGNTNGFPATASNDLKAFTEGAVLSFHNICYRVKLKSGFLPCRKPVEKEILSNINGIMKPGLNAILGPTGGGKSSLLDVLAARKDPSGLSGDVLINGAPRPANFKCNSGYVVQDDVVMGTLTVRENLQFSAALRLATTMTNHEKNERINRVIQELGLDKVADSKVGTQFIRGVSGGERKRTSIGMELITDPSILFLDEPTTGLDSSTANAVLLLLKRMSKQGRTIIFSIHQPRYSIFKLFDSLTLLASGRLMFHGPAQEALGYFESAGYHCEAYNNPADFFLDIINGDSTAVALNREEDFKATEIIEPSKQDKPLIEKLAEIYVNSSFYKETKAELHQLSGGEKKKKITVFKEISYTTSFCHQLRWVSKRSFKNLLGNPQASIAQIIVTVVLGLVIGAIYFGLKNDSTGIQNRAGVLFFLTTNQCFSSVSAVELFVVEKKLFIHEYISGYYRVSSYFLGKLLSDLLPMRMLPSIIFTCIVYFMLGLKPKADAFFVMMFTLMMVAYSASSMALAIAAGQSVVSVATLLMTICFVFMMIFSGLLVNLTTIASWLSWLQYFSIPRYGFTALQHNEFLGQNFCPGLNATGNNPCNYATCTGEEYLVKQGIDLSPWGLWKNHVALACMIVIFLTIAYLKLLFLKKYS
# Summary of the method: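 Bidirectional A→B and B→A transport across PreadyPort BCRP-MDCKII monolayers (days 12–15) was run in duplicate for 120 min at 37° C, 5% CO2 after a 15 min preincubation. Compound levels were measured by LC-MS/MS. Papp and recovery were calculated, with efflux ratio indicating transporter engagement.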
# wtKIT = molecular target: T2, wtKIT (Homo sapiens, UniProt P10721); test: Caliper biochemical assay, wtKIT; settings: Table 6, read-out: KIT Biochemical IC50 avg
# T2 construct: 1888289AM in the reaction mixtures
# T2 sequence (P10721 26-976): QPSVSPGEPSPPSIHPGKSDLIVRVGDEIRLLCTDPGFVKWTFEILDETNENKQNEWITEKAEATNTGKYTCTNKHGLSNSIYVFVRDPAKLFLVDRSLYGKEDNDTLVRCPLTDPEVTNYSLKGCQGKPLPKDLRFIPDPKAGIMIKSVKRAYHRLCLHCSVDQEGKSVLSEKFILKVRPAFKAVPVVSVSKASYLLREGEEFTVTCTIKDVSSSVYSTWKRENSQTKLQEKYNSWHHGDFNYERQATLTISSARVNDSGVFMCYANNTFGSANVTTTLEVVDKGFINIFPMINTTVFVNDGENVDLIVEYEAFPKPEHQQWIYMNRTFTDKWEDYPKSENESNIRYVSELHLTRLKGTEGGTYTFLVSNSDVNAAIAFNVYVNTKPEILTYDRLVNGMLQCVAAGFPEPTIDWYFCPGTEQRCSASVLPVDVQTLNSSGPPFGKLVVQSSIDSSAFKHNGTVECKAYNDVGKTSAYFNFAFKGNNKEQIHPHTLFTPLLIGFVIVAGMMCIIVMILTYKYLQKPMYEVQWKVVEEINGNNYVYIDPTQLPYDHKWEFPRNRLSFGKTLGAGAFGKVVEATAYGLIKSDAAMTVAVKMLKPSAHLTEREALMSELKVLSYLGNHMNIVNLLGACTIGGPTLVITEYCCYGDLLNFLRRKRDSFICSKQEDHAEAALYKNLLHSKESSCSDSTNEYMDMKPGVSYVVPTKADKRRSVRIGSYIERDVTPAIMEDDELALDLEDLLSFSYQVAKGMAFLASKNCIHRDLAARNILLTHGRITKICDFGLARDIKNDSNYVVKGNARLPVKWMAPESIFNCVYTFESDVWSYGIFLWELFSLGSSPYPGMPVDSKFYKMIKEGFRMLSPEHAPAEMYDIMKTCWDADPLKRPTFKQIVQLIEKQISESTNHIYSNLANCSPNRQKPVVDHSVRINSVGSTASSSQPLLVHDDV
# Summary of the method: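 Enzyme (5.0 nM wtKIT), 1 μM FAM-labelled peptide, 400 μM ATP and 10 mM MnCl2 in HEPES pH 7.5 with 1% DMSO, incubated 3 h at 25° C. EDTA quench; substrate and phosphoproduct separated by microfluidic electrophoresis and quantified by fluorescence.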
# PDGFRα = molecular target: T3, PDGFRα (Homo sapiens, UniProt P16234); test: Caliper biochemical assay, PDGFRα; settings: Table 6
# T3 construct: purchased Millipore 14-467 (lot 26321_ACTI)
# T3 sequence (P16234 24-1089): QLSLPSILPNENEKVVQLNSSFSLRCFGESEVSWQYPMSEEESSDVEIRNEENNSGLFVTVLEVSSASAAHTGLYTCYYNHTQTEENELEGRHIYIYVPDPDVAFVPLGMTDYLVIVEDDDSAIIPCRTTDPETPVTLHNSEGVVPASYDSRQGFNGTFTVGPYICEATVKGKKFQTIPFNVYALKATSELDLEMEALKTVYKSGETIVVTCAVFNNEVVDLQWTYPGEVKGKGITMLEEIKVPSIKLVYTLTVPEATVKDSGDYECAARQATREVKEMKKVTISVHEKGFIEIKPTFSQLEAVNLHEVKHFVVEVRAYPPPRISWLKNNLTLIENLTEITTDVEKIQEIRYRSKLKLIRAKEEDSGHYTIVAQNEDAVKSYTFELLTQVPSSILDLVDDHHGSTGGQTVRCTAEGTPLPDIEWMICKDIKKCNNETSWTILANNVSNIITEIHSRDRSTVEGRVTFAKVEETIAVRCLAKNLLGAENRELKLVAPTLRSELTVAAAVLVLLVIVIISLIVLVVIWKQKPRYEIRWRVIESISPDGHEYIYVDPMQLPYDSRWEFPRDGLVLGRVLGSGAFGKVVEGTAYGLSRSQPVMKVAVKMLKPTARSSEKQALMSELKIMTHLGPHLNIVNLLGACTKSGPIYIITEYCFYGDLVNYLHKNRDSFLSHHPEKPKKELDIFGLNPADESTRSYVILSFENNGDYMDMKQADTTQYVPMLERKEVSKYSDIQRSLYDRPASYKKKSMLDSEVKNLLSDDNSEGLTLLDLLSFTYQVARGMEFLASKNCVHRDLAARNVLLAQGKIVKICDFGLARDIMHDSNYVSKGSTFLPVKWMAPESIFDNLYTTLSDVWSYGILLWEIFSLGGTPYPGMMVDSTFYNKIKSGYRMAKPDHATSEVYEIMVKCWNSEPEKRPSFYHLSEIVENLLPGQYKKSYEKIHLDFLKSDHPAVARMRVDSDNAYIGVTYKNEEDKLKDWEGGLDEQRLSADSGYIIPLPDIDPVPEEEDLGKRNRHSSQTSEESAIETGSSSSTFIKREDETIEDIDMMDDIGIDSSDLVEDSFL
# Summary of the method: (§1)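 Kinase, FAM-labelled peptide substrate, ATP and Mn^2+ incubated with compound for 3 h at 25° C, then quenched with EDTA buffer. Substrate and phosphorylated product separated by microfluidic electrophoresis and quantified by fluorescence intensity; no-enzyme wells define 100% inhibition.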
# CSF-1R = molecular target: T4, CSF-1R (Homo sapiens, UniProt P07333); test: Caliper biochemical assay, CSF-1R; settings: Table 6
# T4 construct: purchased Invitrogen PV3249 (lot 662393N)
# T4 sequence (P07333 20-972): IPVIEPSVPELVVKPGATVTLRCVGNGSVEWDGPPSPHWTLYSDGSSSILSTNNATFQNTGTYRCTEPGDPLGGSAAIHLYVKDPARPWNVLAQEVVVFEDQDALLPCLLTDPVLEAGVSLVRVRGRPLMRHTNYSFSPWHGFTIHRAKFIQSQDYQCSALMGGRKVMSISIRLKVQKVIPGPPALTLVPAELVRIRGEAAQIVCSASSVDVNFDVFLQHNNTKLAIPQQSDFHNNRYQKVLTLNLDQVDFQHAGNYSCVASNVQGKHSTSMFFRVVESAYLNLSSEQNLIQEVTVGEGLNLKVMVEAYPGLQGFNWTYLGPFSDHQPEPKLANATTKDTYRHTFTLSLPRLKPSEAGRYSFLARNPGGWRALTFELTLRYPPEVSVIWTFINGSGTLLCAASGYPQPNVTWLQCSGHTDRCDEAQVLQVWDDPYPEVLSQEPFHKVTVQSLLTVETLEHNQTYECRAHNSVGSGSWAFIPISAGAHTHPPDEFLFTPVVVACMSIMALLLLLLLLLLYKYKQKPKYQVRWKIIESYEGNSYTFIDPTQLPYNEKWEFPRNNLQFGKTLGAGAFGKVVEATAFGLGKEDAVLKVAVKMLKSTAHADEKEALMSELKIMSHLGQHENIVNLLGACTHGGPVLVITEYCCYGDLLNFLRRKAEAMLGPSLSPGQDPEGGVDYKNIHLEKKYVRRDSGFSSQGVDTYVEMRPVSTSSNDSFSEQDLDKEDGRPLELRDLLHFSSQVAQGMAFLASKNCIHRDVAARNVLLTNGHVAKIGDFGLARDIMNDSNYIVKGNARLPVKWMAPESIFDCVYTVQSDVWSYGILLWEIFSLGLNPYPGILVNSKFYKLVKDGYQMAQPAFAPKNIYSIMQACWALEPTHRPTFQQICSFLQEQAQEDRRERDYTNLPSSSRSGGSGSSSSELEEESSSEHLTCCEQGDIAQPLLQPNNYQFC
# Summary of the method: as §1
Compound,Solubility (μM) (Kinetic solubility assay),MDCK-BCRP: Efflux Ratio [1],MDCK-BCRP: Papp A-B [1],IC50 (wtKIT),IC50 (PDGFRα),IC50 (CSF-1R),"solubility at 24 h (Kinetic solubility assay; phosphate buffer, pH 7.4, aqueous buffer, kinetic from dmso stock)"
Cc1ccc(-c2noc([C@H]3C[C@@H]3F)n2)cc1NC(=O)c1cnc2cc(N3CCC3)ccn12 [Compound I-295],**** (a solubility less than or equal to 2 μM),1.58,6.12 10^−6 cm/s,≤ 50 nM,≤ 50 nM,≤ 50 nM,–
"Cc1ccc(-c2noc(C(C)NS(C)(=O)=O)n2)cc1NC(=O)c1cnc2ccccn12 (single isomer, unassigned) [Compound I-238]",* (a solubility greater than 50 μM),22.7,0.92 10^−6 cm/s,≤ 50 nM,5000 to 30000 nM,50 to 500 nM,–
Cc1ccc(-c2noc(CO)n2)cc1NC(=O)c1cnc2ccccn12 [Compound I-337],* (a solubility greater than 50 μM),4.71,3.73 10^−6 cm/s,≤ 50 nM,50 to 500 nM,50 to 500 nM,–
"Cc1ccc(-c2noc(C(C)NS(C)(=O)=O)n2)cc1NC(=O)c1cnc2ccccn12 (single isomer, unassigned) [Compound I-237]",** (a solubility greater than 10 μM and less than or equal to 50 μM),11.5,1.66 10^−6 cm/s,50 to 500 nM,5000 to 30000 nM,500 to 5000 nM,–
CCCS(=O)(=O)N1CC(c2nc(-c3ccc(Cl)c(NC(=O)c4cnc5ccccn45)c3)no2)C1 [Compound I-220],**** (a solubility less than or equal to 2 μM),1.17,26.4 10^−6 cm/s,≤ 50 nM,5000 to 30000 nM,50 to 500 nM,–
Cc1nc(-c2ccc(C)c(NC(=O)c3cnc4ccc(N(C)C)cn34)c2)no1 [Compound I-205],**** (a solubility less than or equal to 2 μM),1.66,23.5 10^−6 cm/s,≤ 50 nM,50 to 500 nM,≤ 50 nM,–
Cc1ccc(-c2noc(C3COC3)n2)cc1NC(=O)c1cnc2ccccn12 [Compound I-138],**** (a solubility less than or equal to 2 μM),5.11,10.4 10^−6 cm/s,≤ 50 nM,500 to 5000 nM,≤ 50 nM,–
Cc1ccc(-c2noc(CC(O)C(F)F)n2)cc1NC(=O)c1cnc2ccccn12 (stereo not shown) [Compound I-114],**** (a solubility less than or equal to 2 μM),8.07,3.03 10^−6 cm/s,≤ 50 nM,500 to 5000 nM,50 to 500 nM,–
COCCS(=O)(=O)N1CC(c2nc(-c3ccc(C)c(NC(=O)c4cnc5ccccn45)c3)no2)C1 [Compound I-235],*** (a solubility greater than 2 μM and less than or equal to 10 μM),6.86,3.11 10^−6 cm/s,≤ 50 nM,5000 to 30000 nM,50 to 500 nM,–
COC(=O)N1CC(c2nc(-c3ccc(Cl)c(NC(=O)c4cnc5ccccn45)c3)no2)C1 [Compound I-339],**** (a solubility less than or equal to 2 μM),1.75,13 10^−6 cm/s,≤ 50 nM,500 to 5000 nM,≤ 50 nM,–
Cc1ccc(-c2noc(C3CN(C(=O)CO)C3)n2)cc1NC(=O)c1cnc2ccccn12 [Compound I-287],*** (a solubility greater than 2 μM and less than or equal to 10 μM),0.65,11.8 10^−6 cm/s,50 to 500 nM,5000 to 30000 nM,5000 to 30000 nM,–
Cc1ccc(-c2noc(C3CCS(=O)(=O)C3)n2)cc1NC(=O)c1cnc2ccccn12 (racemic) [Compound I-389],** (a solubility greater than 10 μM and less than or equal to 50 μM),54.3,0.87 10^−6 cm/s,50 to 500 nM,–,–,–
Cc1ccc(-c2noc([C@H]3C[C@@H]3F)n2)cc1NC(=O)c1cnn2ccccc12 [Compound I-109],**** (a solubility less than or equal to 2 μM),1.12,88.7 10^−6 cm/s,–,–,–,–
CCOc1ccn2c(C(=O)Nc3cc(-c4noc([C@H]5C[C@@H]5F)n4)ccc3C)cnc2c1 [Compound I-93],**** (a solubility less than or equal to 2 μM),1.16,21 10^−6 cm/s,–,–,–,–
COc1ccn2c(C(=O)Nc3cc(-c4noc(C[C@H](C)O)n4)ccc3C)cnc2c1 [Compound I-94],**** (a solubility less than or equal to 2 μM),8.04,5.19 10^−6 cm/s,–,–,–,–
Cc1ccc(-c2noc([C@H]3C[C@@H]3F)n2)cc1NC(=O)c1cnc2cc(OC(F)(F)F)ccn12 [Compound I-87],**** (a solubility less than or equal to 2 μM),0.71,30.4 10^−6 cm/s,–,–,–,–
COc1ccc2ncc(C(=O)Nc3cc(-c4noc(C[C@@H](C)O)n4)ccc3C)n2c1 [Compound I-119],**** (a solubility less than or equal to 2 μM),–,–,–,–,–,–
COc1ccn2c(C(=O)Nc3cc(-c4noc(CC5CC(F)(F)C5)n4)ccc3C)cnc2c1 [Compound I-91],**** (a solubility less than or equal to 2 μM),1.76,1.11 10^−6 cm/s,–,–,–,–
"Cc1ccc(-c2noc([C@H]3C[C@@H]3F)n2)cc1NC(=O)c1cnc2cc(COCC(C)(C)O)ccn12 [Compound I-71, N-[5-[5-[(1R,2S)-2-fluorocyclopropyl]-1,2,4-oxadiazol-3-yl]-2-methyl-phenyl]-7-[(2-hydroxy-2-methyl-propoxy)methyl]imidazo[1,2-a]pyridine-3-carboxamide]",–,–,–,≤ 50 nM,500 to 5000 nM,≤ 50 nM,10 to 50 µM
COc1ccn2c(C(=O)Nc3cc(-c4noc(C5CC(F)(F)C5)n4)ccc3C)cnc2c1 [Compound I-96],**** (a solubility less than or equal to 2 μM),1.44,8.58 10^−6 cm/s,–,–,–,–
Cc1ccc(-c2cnc(N3CC(F)(F)C3)o2)cc1NC(=O)c1cnc2ccccn12 [Compound I-213],**** (a solubility less than or equal to 2 μM),1.42,20.6 10^−6 cm/s,≤ 50 nM,–,–,–
COCCOCc1ccn2c(C(=O)Nc3cc(-c4noc([C@H]5C[C@@H]5F)n4)ccc3C)cnc2c1 [Compound I-84],** (a solubility greater than 10 μM and less than or equal to 50 μM),2.28,20.7 10^−6 cm/s,–,–,–,–
"COc1ccn2c(C(=O)Nc3cc(-c4noc(CC(O)C(F)F)n4)ccc3C)cnc2c1 (single isomer, unassigned) [Compound I-76]",**** (a solubility less than or equal to 2 μM),–,–,–,–,–,–
Cc1ccc(-c2noc(C3(O)CC(F)(F)C3)n2)cc1NC(=O)c1cnc2ccccn12 [Compound I-380],**** (a solubility less than or equal to 2 μM),14.2,1.21 10^−6 cm/s,≤ 50 nM,–,–,–
Cc1ccc(-c2noc(CC(C)(C)O)n2)cc1NC(=O)c1cnc2ccccn12 [Compound I-336],* (a solubility greater than 50 μM),19.9,1.92 10^−6 cm/s,50 to 500 nM,–,–,–
Cc1ccc(-c2noc(CC(O)C(F)F)n2)cc1NC(=O)c1cnc2ccccn12 (stereo not shown) [Compound I-122],**** (a solubility less than or equal to 2 μM),29.4,1.63 10^−6 cm/s,–,–,–,–
